Reference: patent publication US20230250169A1, “AXL Inhibitors for Antiviral Therapy” (BERGENBIO ASA, priority 2020, published 2023)
“Also recorded” adds a separate entry of the source. Where two headings read alike, the source gives them in different places.

Assays:
[1] = tested on: VSV/SARS-CoV-2 spike pseudovirion; assay type: cell-based
SARS-CoV-2 [2] = assay type: cell-based, Green African Monkey
SARS-CoV-2 [3] = assay type: cell-based; conditions: for sensitivity of SARS-CoV-2 infection to inhibitor: three of the lung tumor lines from John Minna, representative data
[4] = tested on: Mouse Hepatitis Virus (MHV) strain A59; test: Mouse hepatitis virus (MHV A59) infection of murine bone marrow-derived macrophages, virus load by qRT-PCR; assay type: cell-based; conditions: for MHV virus load in WT mBMDM: WT cells, pretreated and kept on cells
[5] = tested on: VSV/SARS-CoV-2 spike pseudovirions; assay type: cell-based, Green African Monkey
SARS-CoV-2 [6] = assay type: cell-based
SARS-CoV-2 [7] = test: SARS-CoV-2 binding on Vero E6 cells (qRT-PCR of bound viral RNA); assay type: cell-based, Green African Monkey; conditions: MOI=5, 15° C., 60 m
Description: FIG. 9 • Evaluation of SARS-CoV-2 binding on Vero E6 cells. Cells were incubated with virus (MOI=5) and treatments noted at 15° C. for 60 m. Subsequently, some cells were treated with trypsin to remove bound virus. All cells were washed extensively to remove unbound virus and cells were extracted for RNA. Viral load was determined and normalized for the host gene GAPDH. This is one of 3 different experiments yielding similar results.
In an additional set of studies with Vero E6 cells, it was evaluated whether bemcentinib or PS liposomes blocked VT SARS-CoV-2 binding. Using an MOI of 5, SARS-CoV-2 was incubated at 15° C. for 60 m with Vero E6 cells in the presence of bemcentinib or PS liposomes. Phosphatidylcholine (PC) liposomes were incubated with the cells as a control for PS-mediated viral competition; trypsin was added after virus binding to some cells as a negative control. Cells were placed in Trizol and virus binding was assessed by qRT-PCR detection of viral RNA genomes as compared to the level of a housekeeping gen mRNA, GAPDH. […] Similar studies in Vero E6 cells and other more relevant lung cells will be performed to assess virus internalization following virus binding.

SARS-CoV-2 [8] = assay type: cell-based; conditions: A549-hACE2 and Vero E6 cells, 1 uM, 24 h, preliminary
SARS-CoV-2 [9] = assay type: cell-based; conditions: MOI=0.1, 24 h, inhibitor added prior to infection
SARS-CoV-2 [10] = test: BGBC020 and ACCORD-2 studies taken together; assay type: in vivo, human; conditions: across both BGBC020 and ACCORD-2 studies; SoC 10
SARS-CoV-2 [11] = test: SARS-CoV-2 salivary viral load (quantitative PCR) in BGBC020 patients; assay type: in vivo
SARS-CoV-2 [12] = test: Clinical case report: COVID-19 in a lung cancer patient on bemcentinib+erlotinib; assay type: in vivo
Ebola virus = conditions: one of only two of sixty compounds; cited from earlier work
SARS-CoV-2 [13] = conditions: Vero E6 and CaIU3, Dittmar et al; cited from earlier work
MHV = test: MHV-infected C57BL/6 mice treated by gavage
SARS-CoV-2 [14] = test: Phase 2 clinical trial ACCORD-2 (UK), hospitalised COVID-19 patients
SARS-CoV-2 [15] = test: Phase 2 clinical trial BGBC020 (India, South Africa), hospitalised COVID-19 patients, bemcentinib plus SoC versus SoC
[16] = one high-risk patient on bemcentinib+erlotinib

Question: Which “hACE2-dependent pseudovirion infection (luminescence)” value [1] does the source give for `CC(C)C[C@H](NC(=O)[C@H]1O[C@@H]1C(=O)O)C(=O)NCCCCN=C(N)N` [E64] here?
Answer: effectively blocked infection

Question: And the “WT SARS-CoV-2 infection of Vero E6 cells (viral load)” value (SARS-CoV-2 [2])?
Answer: blocked infection

Question: What about the “sensitivity of SARS-CoV-2 infection to inhibitor” value (SARS-CoV-2 [3]) of the same compound?
Answer: sensitive

Question: Which “MHV infection of mBMDM (MHV spike gene, qRT-PCR)” value (“MHV infection of mBMDM” below) ([4]; 1 μM, 24 h, p=0.034 in one-way ANOVA) does the source give for `Nc1nc(Nc2ccc3c(c2)CC[C@@H](N2CCCC2)CC3)nn1-c1cc2c(nn1)-c1ccccc1CCC2` [bemcentinib, 1-(6,7-dihydro-5H-benzo[6,7]cyclohepta[1,2-c]pyridazin-3-yl)-N^3-((7-(S)-pyrrolidin-1-yl)-6,7,8,9-tetrahydro-5H-benzo[7]annulene-2-yl)-1H-1,2,4-triazole-3,5-diamine] here?
Answer: significantly reducing infection

Question: And the “reduction of MHV virus load in ISG15 (KO) and USP18C61A/C61A mBMDM” value ([4]; 1 μM, 24 h, trend to lower virus load)?
Answer: not statistically significant; also recorded: did not reach statistical significance

Question: And the “inhibitory effect on virus infection” value ([4]; BMDM from ISG15-null and USP18C61A/C61A mice, compared with wild type)?
Answer: more variable and in general reduced

Question: And the viral-induced syncytia formation ([4]; MHV-infected BMDM cultures)?
Answer: reduced

Question: What about the “MHV virus load in WT mBMDM” value ([4]; 1 μM, 24 h) of the same compound?
Answer: significantly reduced MHV infection

Question: And the “MHV virus load in WT mBMDM” value ([4]; 1 μM, 24 h, listed as Bemcentinib)?
Answer: reduces virus load

Question: And the “MHV infection of mBMDM” value ([4]; increasing concentrations, MOI 0.01, 24 h)?
Answer: inhibitory trend; also recorded: did inhibit MHV infection

Question: What about the “MHV infection of mBMDM” value ([4]; increasing concentrations, MOI 0.01, 24 h, listed as Bemcentinib) of the same compound?
Answer: inhibits MHV infection

Question: And the “coronavirus load in cells” value ([4]; primary murine BMDM, MHV, 1 μM, 20 h following infection, preliminary)?
Answer: reduces coronavirus load

Question: What about the “SARS-CoV-2 spike dependent pseudovirion infection of Vero E6 cells” value [5] of the same compound?
Answer: highly effective; also recorded: inhibited pseudovirus infection

Question: What about the “SARS-CoV-2 infection of CalU3 cells (viral load)” value (SARS-CoV-2 [6]) of the same compound?
Answer: did not inhibit

Question: What about the “SARS-CoV-2 binding to Vero E6 cells” value (SARS-CoV-2 [7]) of the same compound?
Answer: no effect

Question: And the “SARS-CoV-2 viral transcripts (RNAseq)” value (SARS-CoV-2 [8])?
Answer: dramatically reduced

Question: What about the “SARS-CoV-2 viral transcripts (RNAseq)” value (SARS-CoV-2 [8]; listed as Bemcentinib) of the same compound?
Answer: significantly reduced

Question: What about the “Sensitive to Bemcentinib” value (SARS-CoV-2 [3]; lung line 820) of the same compound?
Answer: Yes

Question: And the “Sensitive to Bemcentinib” value (SARS-CoV-2 [3]; lung line CalU3)?
Answer: No

Question: And the “Sensitive to Bemcentinib” value (SARS-CoV-2 [3]; lung line H322)?
Answer: Yes

Question: What about the “Sensitive to Bemcentinib” value (SARS-CoV-2 [3]; lung line H1650) of the same compound?
Answer: Yes

Question: And the “Sensitive to Bemcentinib” value (SARS-CoV-2 [3]; lung line H1819)?
Answer: No

Question: And the “Sensitive to Bemcentinib” value (SARS-CoV-2 [3]; lung line H3255)?
Answer: No

Question: What about the “Sensitive to Bemcentinib” value (SARS-CoV-2 [3]; lung line HCC1944) of the same compound?
Answer: Mixed findings

Question: What about the “Sensitive to Bemcentinib” value (SARS-CoV-2 [3]; lung line HCC2302) of the same compound?
Answer: Yes

Question: And the “Sensitive to Bemcentinib” value (SARS-CoV-2 [3]; lung line HCC4207)?
Answer: Mixed findings

Question: What about the “Sensitive to Bemcentinib” value (SARS-CoV-2 [3]; lung line HCC4256) of the same compound?
Answer: No

Question: And the “Sensitive to Bemcentinib” value (SARS-CoV-2 [3]; lung line HSAEC13)?
Answer: Mixed findings

Question: What about the “sensitivity of SARS-CoV-2 infection to inhibitor” value (SARS-CoV-2 [3]) of the same compound?
Answer: sensitive

Question: What about the “SARS-CoV-2 virus load in Huh7 cells” value (SARS-CoV-2 [9]) of the same compound?
Answer: inhibited virus infection in a dose dependent manner

Question: What about the COVID-19 related deaths (SARS-CoV-2 [10]) of the same compound?
Answer: 3

Question: What about the “patients with salivary viral load below LLOQ (500 copies/mL)” value (from here on “patients”) (SARS-CoV-2 [11]; absence of another antiviral, day 8 (8 of 12), SoC 37.5%) of the same compound?
Answer: approximately 66%

Question: And the “patients” value (SARS-CoV-2 [11]; absence of another antiviral, day 11 (3 of 3), SoC 60%)?
Answer: 100%

Question: And the “rate of viral clearance” value (SARS-CoV-2 [11]; day 11, all patients, SoC 57%)?
Answer: 100%

Question: And the “patients” value (SARS-CoV-2 [11]; presence of another antiviral (remdesivir or favipiravir), day 8 (9 of 11), SoC 54%)?
Answer: approximately 82%

Question: What about the “patients” value (SARS-CoV-2 [11]; presence of another antiviral (remdesivir or favipiravir), day 11 (9 of 9), SoC 56%) of the same compound?
Answer: 100%

Question: What about the COVID-19 disease course (SARS-CoV-2 [12]; [16]) of the same compound?
Answer: 7 days

Question: And the “course of COVID-19” value (SARS-CoV-2 [12]; [16])?
Answer: very mild

Question: What about the “transmission to co-habiting partner” value (SARS-CoV-2 [12]; one patient on bemcentinib+erlotinib) of the same compound?
Answer: lack of transmission

Question: What about the “effect against Ebola infection in animal models” value (Ebola virus) of the same compound?
Answer: some protective/therapeutic effect

Question: And the “SARS-CoV-2 infection in both cell types” value (SARS-CoV-2 [13])?
Answer: reported to inhibit

Question: What about the “virus load in liver” value (MHV; C57BL/6 mice, 50,000 iu MHV, versus pooled untreated and vehicle only groups, Student's t test) of the same compound?
Answer: significantly reduced virus load

Question: And the “type I interferon responses (IFN related gene expression)” value (MHV; MHV-infected C57BL/6 mice, day 3, spleen and liver RNA)?
Answer: enhancing type I interferon responses

Question: And the “Laboratory TRAE (haem or chemistry)” value (SARS-CoV-2 [14]; ACCORD-2)?
Answer: no TRAE haem or chemistry

Question: And the QTcF prolongation (SARS-CoV-2 [14]; ACCORD-2)?
Answer: No reported QTcF prolongation

Question: And the Mortality (SARS-CoV-2 [14]; by D29, of 30 patients, SoC 6 of 30)?
Answer: 1 patients

Question: And the “QTcF prolongation >501 msec” value (SARS-CoV-2 [15]; BGBC020)?
Answer: No QTcF prolongation

Question: And the SUSAR (SARS-CoV-2 [15]; BGBC020)?
Answer: No SUSAR

Question: And the “Time to NEWS2 score ≤2, Hazard ratio (95% CI)” value (SARS-CoV-2 [15]; BGBC020 interim results, secondary endpoint)?
Answer: 1.10 (0.70, 1.73)

Question: What about the Mortality (SARS-CoV-2 [15]; by D29, of 58 patients, SoC 4 of 57) of the same compound?
Answer: 2 patients

Question: And the “worsening by 1, 2 or 3 points on WHO scale” value (SARS-CoV-2 [15]; days 2, 8, 15 and 29, versus standard of care alone)?
Answer: lower proportion of individual patients experiencing worsening

Question: And the SAE (SARS-CoV-2 [15]; of 58 patients, SoC 4)?
Answer: 5 patients

Question: And the NEWS2 normalisation (SARS-CoV-2 [15]; versus SoC, interim)?
Answer: favours bemcentinib arm within week 1

Question: And the “time to WHO OCS improvement or discharge (primary endpoint)” value (SARS-CoV-2 [15]; versus SoC, particularly with higher baseline CRP, interim)?
Answer: Favours the bemcentinib arm

Question: For `CN(C)C(=O)COC(=O)Cc1ccc(OC(=O)c2ccc(NC(=N)N)cc2)cc1` [camostat], which “hACE2-dependent pseudovirion infection (luminescence)” value [1] is on record?
Answer: blocked infection, but to a lesser extent
